Consider seven molecules from PubChem BioAssay (NCI).

Among the test systems are NCI-H226 lung; UO-31 renal; MDA-MB-231 breast; SK-MEL-28 melanoma; HCT-116 colon; HT29 colon; U251 CNS; HOP-92 NSCLC; KM12 colon; SNB-75 CNS.
Common to all, as to assay: inhibition of tumour cell growth, NCI panel, 48 h

SMILES strings stand for the structures.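 The compound was tested at five concentrations on cells cultured in 96-well plates, with a 48-hour exposure period. Abbreviation: GI50, concentration required for 50% inhibition of growth. TGI marks complete inhibition of growth.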 Where a SMILES comes first, the peptide text is derived from it. The star is where a group is joined. Trt = c1ccc(C(c2ccccc2)(c2ccccc2)*)cc1; Cbz = O=C(OCc1ccccc1)* Where only a bound is given, the exact number is not on record here.

Turning to `Oc1ccc(Cl)cc1C(c1cc(Cl)ccc1O)C(Cl)(Cl)Cl`, the GI50 in the test with NCI-H226 lung was 1.94 µM; in the test on UO-31 renal, 1.5 µM; in the test with MDA-MB-231 breast it was 1.71 µM; with SK-MEL-28 melanoma it was 1.8 µM; in the test on HCT-116 colon, 1.56 µM; in the test with HT29 colon, 2.05 µM. Besides, the GI50 with U251 CNS is 1.71 µM; in the test with HOP-92 NSCLC it was 2.28 µM; in the test with KM12 colon, 1.73 µM; in the test with SNB-75 CNS it was 2.17 µM. Besides, the TGI came to 4.81 µM in the test with NCI-H226 lung; 4.78 µM in the test with UO-31 renal; 3.86 µM in the test with MDA-MB-231 breast; 4.02 µM in the test with SK-MEL-28 melanoma; 2.97 µM in the test on HCT-116 colon; 4 µM in the test on HT29 colon. The TGI in the test on U251 CNS came out at 3.45 µM; in the test on HOP-92 NSCLC, 5.44 µM; in the test with KM12 colon, 3.34 µM; in the test with SNB-75 CNS it was 9.57 µM.

Turning to `COc1cccc2c1-c1nc(N)c3c(OC)cccc3c1C2=O`, the TGI in the test on NCI-H226 lung, in the test with UO-31 renal, in the test on MDA-MB-231 breast, in the test with SK-MEL-28 melanoma, with HCT-116 colon and with HT29 colon was > 100 µM in each case. Besides, the TGI was > 100 µM with U251 CNS, > 100 µM in the test on HOP-92 NSCLC, 35.3 µM in the test with KM12 colon and 46.4 µM in the test with SNB-75 CNS.

For `CN=C(N)c1ccc(N=C(N)c2ccc(-c3ccc(C(N)=Nc4ccc(C(N)=NC)cc4)cc3)cc2)cc1`, the GI50 was 55.9 µM in the test on NCI-H226 lung; > 100 µM with UO-31 renal; > 100 µM in the test with MDA-MB-231 breast; 41.8 µM in the test with SK-MEL-28 melanoma; 75.8 µM with HCT-116 colon; 62.8 µM in the test with HT29 colon. Also, the GI50 was 55.5 µM in the test with U251 CNS, 84.5 µM in the test on HOP-92 NSCLC, 61.9 µM in the test with KM12 colon and > 100 µM in the test on SNB-75 CNS. The TGI with NCI-H226 lung, in the test with UO-31 renal, in the test on MDA-MB-231 breast, with SK-MEL-28 melanoma, with HCT-116 colon and in the test with HT29 colon was > 100 µM in each case. Besides, the TGI with U251 CNS, in the test with HOP-92 NSCLC, in the test with KM12 colon and in the test with SNB-75 CNS was > 100 µM throughout.

Take `O=C1CC2OCC=C3CN4CCC56c7ccccc7N1C5C2C3CC46O` (stereo not given): the TGI in the test with NCI-H226 lung, with UO-31 renal, with MDA-MB-231 breast, with SK-MEL-28 melanoma, in the test on HCT-116 colon and with HT29 colon was > 100 µM throughout. Also, the TGI in the test with U251 CNS, in the test on HOP-92 NSCLC, in the test with KM12 colon and with SNB-75 CNS was > 100 µM throughout.

For the molecule `COC(=O)C(CO)NC(=O)C(CSC(c1ccccc1)(c1ccccc1)c1ccccc1)NC(=O)OCc1ccccc1` (stereo not given) (Cbz-Cys(Trt)-Ser-OMe; configuration not given here), the TGI in the test with NCI-H226 lung was determined as 26.4 µM; with UO-31 renal, 28.5 µM; in the test on MDA-MB-231 breast, 27.8 µM; in the test on SK-MEL-28 melanoma, 34 µM; in the test with HCT-116 colon, 42.1 µM; in the test on HT29 colon, 33.3 µM. Also, the TGI with U251 CNS was determined as 33.3 µM; in the test with HOP-92 NSCLC it was 29.8 µM; in the test with KM12 colon, 31.3 µM; in the test on SNB-75 CNS it was 33.7 µM.

As for `O=C1CC(c2c[nH]c3ccc(F)cc23)C(=O)N1` (stereo not given), the GI50 in the test with NCI-H226 lung, in the test with UO-31 renal, in the test on MDA-MB-231 breast, in the test with SK-MEL-28 melanoma, in the test with HCT-116 colon and with HT29 colon was > 100 µM in each case. For the same molecule, the GI50 with U251 CNS, in the test on HOP-92 NSCLC, in the test with KM12 colon and in the test on SNB-75 CNS was > 100 µM throughout. In addition, the TGI in the test with NCI-H226 lung, in the test with UO-31 renal, with MDA-MB-231 breast, with SK-MEL-28 melanoma, in the test with HCT-116 colon and in the test on HT29 colon was > 100 µM each time. In addition, the TGI with U251 CNS, in the test on HOP-92 NSCLC, in the test on KM12 colon and in the test on SNB-75 CNS was > 100 µM in each case.

As to `O=C1/C(=C/c2ccc(Cl)c(Cl)c2)CN(C(=O)C(Cl)Cl)C/C1=C\c1ccc(Cl)c(Cl)c1`, the GI50 in the test with NCI-H226 lung is 0.192 µM; with UO-31 renal, 0.133 µM; in the test on MDA-MB-231 breast, 0.237 µM; with SK-MEL-28 melanoma it was 0.252 µM; in the test with HCT-116 colon, 0.0315 µM; in the test with HT29 colon it was 0.071 µM. In addition, the GI50 in the test with U251 CNS is 0.0371 µM; in the test on HOP-92 NSCLC, 0.19 µM; with KM12 colon it was 0.16 µM; with SNB-75 CNS, 0.174 µM. Besides, the TGI in the test on NCI-H226 lung was 0.366 µM; with UO-31 renal, 0.267 µM; in the test with MDA-MB-231 breast, 1.16 µM; in the test with SK-MEL-28 melanoma it was 0.634 µM; in the test with HCT-116 colon, 0.12 µM; with HT29 colon, 2.07 µM. Also, the TGI stood at 0.153 µM in the test with U251 CNS, 0.541 µM in the test with HOP-92 NSCLC, 0.587 µM in the test with KM12 colon and 0.484 µM with SNB-75 CNS.
